Source: patent US20090169521A1, “Vascularized cardiac tissue and methods of producing and using same” (Technion Research & Development Foundation Ltd., priority 2007, published 2009)
“Also recorded” adds a separate entry of the source.

Columns and labels:
[1] = test system: spontaneously contracting engineered cardiac tissue (gap junctions between hESC-CM); experiment: Laser confocal Ca2+ imaging (Fluo-4) of impulse propagation; assay type: cell-based, human; settings: 1 mM, calcium imaging
Method: Laser scanning confocal Ca-imaging: Scaffolds were loaded with fluo-4 Ca AM (Molecular Probes) indicator to visualize free Ca^+2 levels. To this purpose, 5 mM stock solution of fluo-4 AM in DMSO was, diluted in standard hESC medium, at dilution of 1:1000 giving a final concentration of 5 μM. The non-ionic detergent Pluronic F-127 (Molecular Probes) was used to assist dispersion of the nonpolar fluo-4 AM ester in the aqueous media. Scaffolds were incubated for 45 minutes at 37° C. Following incubation the scaffolds were washed (×3) with indicator-free control tyrode solution removing any dye non-specifically associated with the cell surface. Afterwards the scaffolds were further incubated for 15 minutes allowing complete de-esterification of intracellular AM esters (according to manufacture's instructions). […]
Since the ultrastructural characterization clearly indicated the presence of gap junctions between adjacent hESC-CM (FIG. 7D), the present inventors sought to determine whether these formed gap junctions mediate impulse conduction between the hESC-CM and therefore allow synchronous contraction. […] The beating frequency of the spontaneously contracting cardiac tissue was evaluated following application of different pharmacological agents. […]

[2] = test system: spontaneously contracting engineered cardiac tissue; experiment: Beating frequency of engineered cardiac tissue after chronotropic agents; assay type: cell-based, human; settings: 1 μM, n=4; before application 1.6±0.3 Hz (isoproterenol), 1.7±0.2 Hz (carbamylcholine)
Method: Since the ultrastructural characterization clearly indicated the presence of gap junctions between adjacent hESC-CM (FIG. 7D), the present inventors sought to determine whether these formed gap junctions mediate impulse conduction between the hESC-CM and therefore allow synchronous contraction. The gap junction uncoupler, 1-heptanol (1 mM), was applied to the spontaneously contracting engineered cardiac tissue. […] The beating frequency of the spontaneously contracting cardiac tissue was evaluated following application of different pharmacological agents. Appropriate positive and negative chronotropic responses were observed following application of the β-agonist, isoproterenol (1 μM) and the muscarinic agonist—carbamylcholine (1 μM). Thus, isoproterenol increased the beating frequency of the engineered cardiac issue from 1.6±0.3 Hz to 2.1±0.3 Hz (p<0.05, n=4), while carbamylcholine decreased the beating frequency from 1.7±0.2 Hz to 1.4±0.1 Hz (p=0.055, n=4).

| SMILES | impulse propagation [1] | beating frequency after application of the agent [2] |
| --- | --- | --- |
| CCCCCCCO [1-heptanol] | complete inhibition; also recorded: completely inhibited | – |
| C[N+](C)(C)CCOC(N)=O.[Cl-] [carbamylcholine] | – | 1.4±0.1 Hz |
| CC(C)NCC(O)c1ccc(O)c(O)c1 (stereo not drawn) [isoproterenol] | – | 2.1±0.3 Hz |
